Laboratory results taken from US11918581B2, “Combination therapy comprising JAK pathway inhibitor and rock inhibitor” (Incyte Corporation, priority 2021, dated 2024).

Tests used:
[1] = molecular target: human JAK1 (a.a. 837-1142) (Homo sapiens, UniProt P23458); experiment: In vitro JAK kinase assay (HTRF), JAK1; format: biochemical; details: 1 mM ATP
Experimental: (§1) The catalytic activity of JAK1, JAK2, or JAK3 was assayed by measuring the phosphorylation of a biotinylated peptide. The phosphorylated peptide was detected by homogenous time resolved fluorescence (HTRF). […] Reactions are carried out at room temperature for 1 hour and then stopped with 20 μL 45 mM EDTA, 300 nM SA-APC, 6 nM Eu-Py20 in assay buffer (Perkin Elmer, Boston, MA). Binding to the Europium labeled antibody takes place for 40 minutes and HTRF signal was measured on a Fusion plate reader (Perkin Elmer, Boston, MA).

[2] = molecular target: human JAK2 (a.a. 828-1132) (Homo sapiens (Human), UniProt O60674); experiment: In vitro JAK kinase assay (HTRF), JAK2; format: biochemical; details: JAK2/JAK1 IC50 ratio, 1 mM ATP
Chain of human JAK2 (a.a. 828-1132) (O60674 828-1132): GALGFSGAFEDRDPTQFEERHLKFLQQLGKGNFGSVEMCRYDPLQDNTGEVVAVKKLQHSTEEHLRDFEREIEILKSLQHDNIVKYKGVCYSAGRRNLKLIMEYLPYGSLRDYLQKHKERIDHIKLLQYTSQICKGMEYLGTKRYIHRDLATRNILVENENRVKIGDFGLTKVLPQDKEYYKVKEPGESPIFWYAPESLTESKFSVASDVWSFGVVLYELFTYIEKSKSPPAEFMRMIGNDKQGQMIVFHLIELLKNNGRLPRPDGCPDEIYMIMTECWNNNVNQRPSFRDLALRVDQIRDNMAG
Experimental: as §1

| SMILES | IC50 [1] [µM] | JAK2/JAK1 [2] |
| --- | --- | --- |
| C[C@@H](O)c1nc2cnc3ccsc3c2n1[C@H]1CC[C@H](CC#N)OC1 [Compound 5, ((2R,5S)-5-{2-[(1R)-1-hydroxyethyl]-1H-imidazo[4,5-d]thieno[3,2-b]pyridin-1-yl}tetrahydro-2H-pyran-2-yl)acetonitrile] | < 0.1 | >10 |
| N#CC[C@]1(n2cc(-c3ncnc4[nH]ccc34)cn2)C[C@H](N2CCN(C(=O)c3ccnc(C(F)(F)F)n3)CC2)C1 [Compound 10, [trans-1-[4-(7H-pyrrolo[2,3-d]pyrimidin-4-yl)-1H-pyrazol-1-yl]-3-(4-{[2-(trifluoromethyl)pyrimidin-4-yl]carbonyl}piperazin-1-yl)cyclobutyl]acetonitrile] | < 0.01 | >10 |
| C[C@H](NC(=O)c1cc(F)c(N2CC(CC#N)(n3cc(-c4ncnc5[nH]ccc45)cn3)C2)cc1F)C(F)(F)F [Compound 16, 4-{3-(cyanomethyl)-3-[4-(7H-pyrrolo[2,3-d]pyrimidin-4-yl)-1H-pyrazol-1-yl]azetidin-1-yl}-2,5-difluoro-N-[(1S)-2,2,2-trifluoro-1-methylethyl]benzamide] | < 0.01 | >10 |
| N#CCC(CN1CCN(C(=O)c2ccc(C#N)cc2F)CC1)n1cc(-c2ncnc3[nH]ccc23)cn1 (stereo not shown) [Compound 8, 4-[(4-{3-cyano-2-[4-(7H-pyrrolo[2,3-d]pyrimidin-4-yl)-1H-pyrazol-1-yl]propyl}piperazin-1-yl)carbonyl]-3-fluorobenzonitrile] | < 0.01 | >10 |
| N#CCC1(n2cc(-c3ncnc4[nH]ccc34)cn2)CN([C@H]2CC[C@@H](Oc3cc(CN4CC[C@@H](O)C4)cc(C(F)(F)F)n3)CC2)C1 [Compound 21, {1-(cis-4-{[4-{[(3R)-3-hydroxypyrrolidin-1-yl]methyl}-6-(trifluoromethyl)pyridin-2-yl]oxy}cyclohexyl)-3-[4-(7H-pyrrolo[2,3-d]pyrimidin-4-yl)-1H-pyrazol-1-yl]azetidin-3-yl}acetonitrile] | < 0.01 | >10 |
| N#CCC1(n2cc(-c3ncnc4[nH]ccc34)cn2)CN([C@H]2CC[C@@H](Oc3cc(CCO)nc(C(F)(F)F)n3)CC2)C1 [Compound 18, {1-(cis-4-{[6-(2-hydroxyethyl)-2-(trifluoromethyl)pyrimidin-4-yl]oxy}cyclohexyl)-3-[4-(7H-pyrrolo[2,3-d]pyrimidin-4-yl)-1H-pyrazol-1-yl]azetidin-3-yl}acetonitrile] | < 0.01 | >10 |
| C[C@@H](CO)NCc1cc(OC2CCN([C@H]3C[C@](CC#N)(n4cc(-c5ncnc6[nH]ccc56)cn4)C3)CC2)nc(C(F)(F)F)c1 [Compound 23, {trans-3-(4-{[4-({[(1S)-2-hydroxy-1-methylethyl]amino}methyl)-6-(trifluoromethyl)pyridin-2-yl]oxy}piperidin-1-yl)-1-[4-(7H-pyrrolo[2,3-d]pyrimidin-4-yl)-1H-pyrazol-1-yl]cyclobutyl}acetonitrile] | < 0.01 | >10 |
| CCNCc1cc(O[C@H]2CC[C@@H](N3CC(CC#N)(n4cc(-c5ncnc6[nH]ccc56)cn4)C3)CC2)nc(C(F)(F)F)c1 [Compound 19, {1-(cis-4-{[4-[(ethylamino)methyl]-6-(trifluoromethyl)pyridin-2-yl]oxy}cyclohexyl)-3-[4-(7H-pyrrolo[2,3-d]pyrimidin-4-yl)-1H-pyrazol-1-yl]azetidin-3-yl}acetonitrile] | < 0.01 | >10 |
| N#CCC1(n2cc(-c3ncnc4[nH]ccc34)cn2)CN(C2CCN(C(=O)Nc3ccc(F)cc3C(F)(F)F)CC2)C1 [Compound 2, 4-{3-(Cyanomethyl)-3-[4-(7H-pyrrolo[2,3-d]pyrimidin-4-yl)-1H-pyrazol-1-yl]azetidin-1-yl}-N-[4-fluoro-2-(trifluoromethyl)phenyl] piperidine-1-carboxamide] | < 0.01 | >10 |

Results, then the compound that gave them:

| IC50 [1] [µM] | JAK2/JAK1 [2] | SMILES |
| --- | --- | --- |
| < 0.01 | >10 | CC(C)(O)c1cc(O[C@H]2CC[C@@H](N3CC(CC#N)(n4cc(-c5ncnc6[nH]ccc56)cn4)C3)CC2)nc(C(F)(F)F)c1 [Compound 20, {1-(cis-4-{[4-(1-hydroxy-1-methylethyl)-6-(trifluoromethyl)pyridin-2-yl]oxy}cyclohexyl)-3-[4-(7H-pyrrolo[2,3-d]pyrimidin-4-yl)-1H-pyrazol-1-yl]azetidin-3-yl}acetonitrile] |
| < 0.01 | >10 | N#CCC(CN1CCN(C(=O)c2ccc(C#N)cc2F)CC1)n1ccc(-c2ncnc3[nH]ccc23)c1 (stereo not shown) [Compound 9, 4-[(4-{3-cyano-2-[3-(7H-pyrrolo[2,3-d]pyrimidin-4-yl)-1H-pyrrol-1-yl]propyl}piperazin-1-yl)carbonyl]-3-fluorobenzonitrile] |
| < 0.01 | >10 | N#CC[C@]1(n2cc(-c3ncnc4[nH]ccc34)cn2)C[C@H](N2CCC(Oc3cc(CN4CCC[C@H]4CO)cc(C(F)(F)F)n3)CC2)C1 [Compound 12, {trans-3-(4-{[4-{[(2S)-2-(hydroxymethyl)pyrroli-din-1-yl]methyl}-6-(trifluoromethyl)pyridin-2-yl]oxy}piperidin-1-yl)-1-[4-(7H-pyrrolo[2,3-d]pyrimidin-4-yl)-1H-pyrazol-1-yl]cyclobutyl}acetonitrile] |
| < 0.01 | >10 | C[C@H](O)CNCc1cc(OC2CCN([C@H]3C[C@](CC#N)(n4cc(-c5ncnc6[nH]ccc56)cn4)C3)CC2)nc(C(F)(F)F)c1 [Compound 25, {trans-3-(4-{[4-({[(2S)-2-hydroxypropyl]amino}methyl)-6-(trifluoromethyl)pyridin-2-yl]oxy}piperidin-1-yl)-1-[4-(7H-pyrrolo[2,3-d]pyrimidin-4-yl)-1H-pyrazol-1-yl]cyclobutyl}acetonitrile] |
| < 0.01 | >10 | N#CC[C@]1(n2cc(-c3ncnc4[nH]ccc34)cn2)C[C@H](N2CCC(Oc3cc(CN4CCC[C@@H]4CO)cc(C(F)(F)F)n3)CC2)C1 [Compound 13, {trans-3-(4-{[4-{[(2R)-2-(hydroxymethyl)pyrroli-din-1-yl]methyl}-6-(trifluoromethyl)pyridin-2-yl]oxy}piperidin-1-yl)-1-[4-(7H-pyrrolo[2,3-d]pyrimidin-4-yl)-1H-pyrazol-1-yl]cyclobutyl}acetonitrile] |
| < 0.01 | >10 | N#CCC1(n2cc(-c3ncnc4[nH]ccc34)cn2)CN([C@H]2CC[C@@H](Oc3cc(CN4CC[C@H](O)C4)cc(C(F)(F)F)n3)CC2)C1 [Compound 22, {1-(cis-4-{[4-{[(3S)-3-hydroxypyrrolidin-1-yl]methyl}-6-(trifluoromethyl)pyridin-2-yl]oxy}cyclohexyl)-3-[4-(7H-pyrrolo[2,3-d]pyrimidin-4-yl)-1H-pyrazol-1-yl]azetidin-3-yl}acetonitrile] |
| < 0.01 | >10 | N#CCC1(n2cc(-c3ncnc4[nH]ccc34)cn2)CN(C2CCN(C(=O)c3ccnc(C(F)(F)F)n3)CC2)C1 [Compound 3, [3-[4-(7H-pyrrolo[2,3-d]pyrimidin-4-yl)-1H-pyrazol-1-yl]-1-(1-{[2-(trifluoromethyl)pyrimidin-4-yl]carbonyl}piperidin-4-yl)azetidin-3-yl]acetonitrile] |
| < 0.01 | >10 | N#CCC(C1CCN(c2nc3cccnc3o2)C1)n1cc(-c2ncnc3[nH]ccc23)cn1 (stereo not shown) [Compound 7, 3-(1-[1,3]oxazolo[5,4-b]pyridin-2-ylpyrrolidin-3-yl)-3-[4-(7H-pyrrolo[2,3-d]pyrimidin-4-yl)-1H-pyrazol-1-yl]propanenitrile] |
